In experiment [1] the test system is sub-genomic HCV NS3-NS5B replicon of genotype 1a (subline 1.19) in Huh-7 cells. Put plainly: 1a luciferase replicon assay (replicon luciferase cell based assay). On the set-up: species or system HCV genotype 1a. Particulars: Hepatitis C virus, genotype 1a replicon, firefly luciferase reporter, 48 hours. The protocol:
(§1) Replicon Luciferase Cell Based Assay
(§2) A 40 mM stock solution in DMSO of each test compound was further diluted into 50 μL of DMSO in the first row of a 96 well, V-bottom microplate, to give 100 times the top concentration of the required dilution series. Aliquots of 25 μL of DMSO were added to each well of the remaining rows, and doubling dilutions of compound were prepared by the serial transfer of 25 μL volumes from the first row onwards. A PlateMate™ robot was used to transfer 1 μL volumes from each dilution well into duplicate wells of a clear bottom, black walled, 96 well assay plate (COSTAR #3603). Control wells received 1 μL of DMSO alone. […]
(§3) One tablet of Resazurin (Fisher #R/0040/79) was dissolved in 50 mL of phosphate buffered saline and 100 μL of solution added to all wells. The plate was re-incubated at 37° C. for a further 2-4 hours, wrapped in aluminium foil, before reading in a FLUOStar Optima at 595 nm. […] The plate was then read for luminescence on a TopCount® NXT™.
(§4) Potency: The luminescence values from all compound-free wells containing cells were averaged to obtain a positive control value. The mean luminescence value from the compound-free wells that had received no cells was used to provide the negative (background) control value. […] The quantifiable and specific reduction of luciferase signal in the presence of a drug is a direct measure of replicon inhibition. […]

Experiment [2] deals with sub-genomic HCV NS3-NS5B replicon of genotype 1b (ET subline) in Huh-7 cells. The experiment can be described thus: 1b luciferase replicon assay (replicon luciferase cell based assay). On the set-up: species or system HCV genotype 1b. Particulars: Hepatitis C virus, Huh-7, 48 h, read-out: IC50 in the 1b luciferase replicon assay. The protocol: as §1, §2, §3, §4
(A replicon is a self-replicating genome or part of one, used to study replication in cells.)

Usually IC50 stands for the concentration that inhibits the measured activity by half. `CC(C)N(c1cc(-c2ccc(NC(=O)c3cscn3)cc2)sc1C(=O)O)C(=O)[C@H]1CC[C@H](C)CC1` [Example 1, 3-[[(trans-4-Methylcyclohexyl)carbonyl](1-methylethyl)amino]-5-{4-[(1,3-thiazol-4-ylcarbonyl)amino]phenyl}-2-thiophenecarboxylic acid]: the IC50 in experiment [1] and in experiment [2] was under 100 nM in each case.

The values above are taken from US20090274655A1, “2-CARBOXY THIOPHENE DERIVATIVES AS ANTI VIRAL AGENTS” (priority 2006, published 2009).
